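Where inhibition never reached the appropriate level, the endpoint shown equals the highest concentration tested. Otherwise, values were interpolated linearly from a five-concentration, 48-hour dose response in 96-well plates. The concentration for 50% growth inhibition is given as GI50.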 Calls of active or inactive are those of the source. Cut-off read from the data, not from the text of the source: active = GI50 up to about 1.1 µM and inactive = higher.
Columns and labels:
Experiment in all cases: DTP human tumour cell line panel, 48 h
A498 = test system: A498
UACC-62 = test system: UACC-62
NCI-H522 = test system: NCI-H522
SR = test system: SR
RXF 393 = test system: RXF 393
Malme-3M = test system: Malme-3M
RPMI-8226 = test system: RPMI-8226
M19-MEL = test system: M19-MEL
OVCAR-5 = test system: OVCAR-5
HL-60 = test system: HL-60
LXFL 529 = test system: LXFL 529
SF-539 = test system: SF-539
A549 = test system: A549
HT-29 = test system: HT-29
SK-OV-3 = test system: SK-OV-3
SK-MEL-5 = test system: SK-MEL-5
CCRF-CEM = test system: CCRF-CEM
OVCAR-4 = test system: OVCAR-4
NCI-H460 = test system: NCI-H460

Measured: GI50

COc1ccc2c(CN3CCCCC3CO)cc3cc(OC)c(OC)cc3c2c1 (centres undefined)
inactive: A498 3.59 µM | UACC-62 10.4 µM | NCI-H522 2.52 µM | SR 3.72 µM | RXF 393 6.65 µM | Malme-3M 4.63 µM | RPMI-8226 3.48 µM | M19-MEL 3.3 µM | OVCAR-5 3.1 µM | HL-60 3.38 µM | LXFL 529 4.9 µM | SF-539 4.02 µM | A549 3.97 µM | HT-29 2.43 µM | SK-OV-3 14.6 µM | SK-MEL-5 7.5 µM | CCRF-CEM 3.56 µM

COC1OC(CBr)C(OC(=O)c2ccccc2)C(O)C1Br (centres undefined)
inactive: A498 > 100 µM | UACC-62 > 100 µM | NCI-H522 > 100 µM | SR > 100 µM | OVCAR-4 > 100 µM | RXF 393 > 100 µM | Malme-3M > 100 µM | RPMI-8226 > 100 µM | M19-MEL > 100 µM | OVCAR-5 > 100 µM | HL-60 > 100 µM | LXFL 529 > 100 µM | SF-539 > 100 µM | A549 > 100 µM | HT-29 > 100 µM | SK-MEL-5 > 100 µM | NCI-H460 > 100 µM | CCRF-CEM > 100 µM

Nc1ccc2ncc(Nc3ccc(Cl)c(Cl)c3)nc2c1
inactive: UACC-62 20.2 µM | NCI-H522 17.9 µM | SR 57.7 µM | OVCAR-4 46 µM | RXF 393 24.7 µM | Malme-3M 23.1 µM | RPMI-8226 24.5 µM | M19-MEL 21.7 µM | OVCAR-5 38.5 µM | HL-60 14.5 µM | LXFL 529 29.6 µM | SF-539 17.3 µM | A549 26.3 µM | HT-29 14.8 µM | SK-OV-3 38.9 µM | SK-MEL-5 17.5 µM | NCI-H460 27.4 µM | CCRF-CEM 19.7 µM

O=C(CSc1nnc(-c2ccc(/N=C\c3ccc(Cl)cc3)cc2)o1)Nc1ccccc1Cl
inactive: UACC-62 > 100 µM | NCI-H522 > 100 µM | SR > 100 µM | OVCAR-4 > 100 µM | RXF 393 > 100 µM | Malme-3M > 100 µM | RPMI-8226 > 100 µM | M19-MEL > 100 µM | HL-60 > 100 µM | LXFL 529 > 100 µM | A549 > 100 µM | HT-29 > 100 µM | SK-OV-3 > 100 µM | SK-MEL-5 > 100 µM | NCI-H460 > 100 µM | CCRF-CEM > 100 µM

CC(=O)c1c(O)ccc2c1CC(CC=O)O2 (centres undefined)
inactive: UACC-62 28.8 µM | NCI-H522 60.5 µM | SR > 100 µM | OVCAR-4 98.6 µM | RXF 393 > 100 µM | Malme-3M > 100 µM | RPMI-8226 45.3 µM | M19-MEL 40.1 µM | OVCAR-5 > 100 µM | HL-60 > 100 µM | LXFL 529 42.9 µM | SF-539 50 µM | A549 > 100 µM | HT-29 37.2 µM | SK-OV-3 > 100 µM | SK-MEL-5 79.8 µM | NCI-H460 > 100 µM | CCRF-CEM 74.8 µM

Cc1cccc(C)c1N1C(=O)C(=O)C(c2nc3ccccc3s2)/C(=N/NC(=O)NN)C1=O (centres undefined)
inactive: A498 > 100 µM | UACC-62 > 100 µM | NCI-H522 > 100 µM | SR > 100 µM | OVCAR-4 > 100 µM | RXF 393 > 100 µM | Malme-3M > 100 µM | M19-MEL > 100 µM | HL-60 > 100 µM | LXFL 529 > 100 µM | SF-539 > 100 µM | A549 > 100 µM | HT-29 > 100 µM | SK-OV-3 > 100 µM | SK-MEL-5 > 100 µM | NCI-H460 > 100 µM | CCRF-CEM > 100 µM

O=C(O)CCSC(=O)Nc1ccccc1Cl
inactive: A498 60 µM | UACC-62 > 100 µM | SR > 100 µM | OVCAR-4 > 100 µM | RXF 393 > 100 µM | Malme-3M > 100 µM | RPMI-8226 > 100 µM | M19-MEL > 100 µM | OVCAR-5 > 100 µM | LXFL 529 > 100 µM | SF-539 > 100 µM | A549 > 100 µM | HT-29 > 100 µM | SK-OV-3 > 100 µM | SK-MEL-5 > 100 µM | NCI-H460 > 100 µM | CCRF-CEM > 100 µM

COC(=O)c1ccc(CS(=O)(=O)c2ccccc2)cc1
inactive: UACC-62 99.8 µM | SR 45 µM | OVCAR-4 > 100 µM | RXF 393 > 100 µM | Malme-3M > 100 µM | RPMI-8226 > 100 µM | M19-MEL 45.4 µM | OVCAR-5 > 100 µM | HL-60 76.6 µM | LXFL 529 > 100 µM | SF-539 > 100 µM | A549 67.8 µM | HT-29 40.8 µM | SK-OV-3 > 100 µM | SK-MEL-5 55.8 µM | NCI-H460 66.1 µM | CCRF-CEM > 100 µM

CCOC(=O)C(C(=O)OCC)=C1N[C@H](C(=O)OCC)CS1
inactive: UACC-62 > 100 µM | NCI-H522 > 100 µM | SR > 100 µM | OVCAR-4 > 100 µM | RXF 393 > 100 µM | Malme-3M > 100 µM | RPMI-8226 > 100 µM | M19-MEL > 100 µM | OVCAR-5 > 100 µM | HL-60 > 100 µM | LXFL 529 > 100 µM | SF-539 > 100 µM | A549 > 100 µM | HT-29 > 100 µM | SK-MEL-5 > 100 µM | NCI-H460 > 100 µM | CCRF-CEM > 100 µM

CN1N=C2c3ccccc3CC[C@H]2C1c1ccccc1 (some centres undefined)
inactive: A498 72.1 µM | UACC-62 32.3 µM | NCI-H522 17.6 µM | SR > 100 µM | OVCAR-4 23.1 µM | RXF 393 17 µM | Malme-3M 25.5 µM | RPMI-8226 28.6 µM | M19-MEL 15.7 µM | OVCAR-5 > 100 µM | HL-60 29.6 µM | LXFL 529 15.4 µM | SF-539 86.5 µM | A549 35.6 µM | HT-29 22.9 µM | SK-OV-3 2.56 µM | NCI-H460 28.9 µM | CCRF-CEM > 100 µM

CC(C)C(N)=O [ISOBUTYRAMIDE]
inactive: UACC-62 > 5000 µM | NCI-H522 > 5000 µM | SR > 5000 µM | OVCAR-4 > 5000 µM | RXF 393 > 5000 µM | Malme-3M > 5000 µM | RPMI-8226 > 5000 µM | M19-MEL > 5000 µM | OVCAR-5 > 5000 µM | HL-60 > 5000 µM | LXFL 529 > 5000 µM | SF-539 > 5000 µM | A549 > 5000 µM | HT-29 > 5000 µM | SK-OV-3 > 5000 µM | SK-MEL-5 > 5000 µM | NCI-H460 > 5000 µM | CCRF-CEM > 5000 µM

N#C/C(=C\c1ccc(O)c(O)c1)C(N)=S [TYRPHOSTIN 47]
inactive: A498 > 100 µM | UACC-62 81.5 µM | NCI-H522 16.2 µM | SR 36.1 µM | OVCAR-4 > 100 µM | Malme-3M > 100 µM | RPMI-8226 > 49.2 µM | M19-MEL > 100 µM | OVCAR-5 > 100 µM | HL-60 10.1 µM | LXFL 529 72.8 µM | SF-539 > 94.4 µM | A549 > 100 µM | HT-29 61.8 µM | SK-OV-3 > 100 µM | SK-MEL-5 71.1 µM | NCI-H460 45.9 µM | CCRF-CEM 9.55 µM

Source: ChEMBL document CHEMBL1201862, “PubChem BioAssay data set” (2004)
